Assay results published in patent US5475032A, “2,4-disulfonyl phenyl butyl nitrone, its salts, and their use as pharmaceuticals” (Oklahoma Medical Research Foundation, priority 1995, dated 1995).
Like-named read-outs stand apart in the source and are kept apart here.

Columns and labels:
[1] = system: creatine kinase (CK); assay: protection of creatine kinase against βAP 25-35 (Example 11); type: biochemical, gerbil; conditions: co-incubation with 0.4 mg/ml BAP 25-35
Experimental: (§1) Cytosolic fractions from gerbil neocortex were prepared and enzyme activities determined. Samples were incubated in the presence of different concentrations of the peptide for 10 min prior to assay. Solid symbols represent the effects of the naturally occurring 25-35 fragment. […] Each point is the mean (+/- s.e.) of 5 observations. βAP derived and other cellular sources of free radicals are an important determinant of the initiation and progression of AD.
(§2) Each point is the mean (+/- s.e.) of 3 observations.

[2] = system: temporal/spatial short term memory following ischemia; assay: 8-arm radial maze test 24 hours after ischemia (Example 6); type: in vivo, gerbil
Experimental: Brain injury can manifest itself as behavioral changes. In this experiment, young adult (3-4 months of age) gerbils were tested to determine their ability to perform an 8-arm maze test 24 hours following an ischemic event as described in Example 1. As compared to nonischemic animals, when untreated they committed many more errors. PBN and compound I were administered to some of the test animals.

[3] = system: normal or uninjured cells; conditions: cited from earlier work
[4] = system: C57BL/6L mice; assay: acute lethality, single i.p. doses of nitrone (Example 9); type: in vivo, mouse; conditions: PBN at 560 mg/kg, Compound I at doses nearly twenty times as great
Experimental: As detailed in Table 7. acute lethality in C57BL/6L mice was determined based upon varying sizes of single i.p. doses of nitrone.

[5] = system: infarct volume following middle cerebral artery occlusion; conditions: cited from earlier work
[6] = system: severe trauma ischemia; conditions: in vivo; cited from earlier work
[7] = system: glutamine synthetase (GS); assay: protection of glutamine synthetase against βAP 25-35 (Example 11); type: biochemical, gerbil; conditions: co-incubation with 0.4 mg/ml BAP 25-35
Experimental: as §1, §2

[8] = system: infarct volume following middle cerebral occlusion; assay: infarct volume after middle cerebral occlusion (Example 7); type: in vivo, C57BL/6J mice; conditions: from 60 min after occlusion for 24 hours
Experimental: The ability of the compound of the invention to reduce infarct volume following an ischemic event was determined.

[9] = comparative tests: nitrone pretreatment combined with adriamycin (Example 13); type: in vivo, mouse; conditions: mouse, in vivo, ip; 300 mg/kg with adriamycin; read-out: combined toxicity (lethality)
Description: (§3) All injections were intraperitoneal.

[10] = system: acute lethal effects of adriamycin; assay: as above; type: in vivo, mouse
Description: as §3

[11] = system: neuron loss following brain ischemia and reperfusion injury; assay: neuronal density, post-ischemia treatment, compound i.p. 30 min after reperfusion following 5 min ischemia (Example 4); type: in vivo, gerbil
[12] = doses demonstrated to be possible; conditions: up to 1000 mg/kg/hour and higher, or i.v. bolus 10 to 2500 mg/kg
[13] = system: neuronal loss following ischemia; assay: protection from neuronal loss, i.v. 60 min after reperfusion onset following 5 min ischemia (Example 5); type: in vivo, gerbil; conditions: for protection for neuronal loss (neuronal density): 60 min after reperfusion onset
[14] = system: neuron loss following brain ischemia and reperfusion injury; assay: neuronal density after 5 min bilateral carotid occlusion, compound i.p. 30 min before ischemia (Example 3); type: in vivo, gerbil; conditions: 30 min before ischemia
Experimental: In the experiments a test compound was administered to groups of six gerbils i.p. as a single dose 30 min before 5 min bilateral carotid occlusion. The density of neuronal nuclei in a 100 micron was measured. Two controls were present--controls which received no test compound and controls which received no test compound and no brain ischemia.

[15] = system: lethality from 10 min ischemia; assay: lethality protection in aged gerbils from 10 min ischemia (Example 8); type: in vivo, gerbil; conditions: 30 min before ischemia

SMILES: CC(C)(C)[N+]([O-])=Cc1ccccc1 [PBN, Alpha-phenyl tert butyl nitrone]
- protection of CK against the effects of βAP fragments [1]: asymptotically leveling out at a substantially incomplete level of protection
- errors in 8-arm radial maze ([2]; 1.0 mg/kg/hr for 24 hours): 29.8 errors
- errors in 8-arm radial maze ([2]; 32 mg/kg/hr for 24 hours): 18.19 errors
- errors in 8-arm radial maze ([2]; 50 mg/kg/hr for 24 hours): 6.23 errors
- errors in 8-arm radial maze ([2]; 100 mg/kg/hr for 24 hours): 5.83 errors
- error levels ([2]; high doses): less effective
- effect on normal or uninjured cells [3]: no measurable effect on normal or uninjured cells
- toxicity [4]: significant toxicity
- infarct volume reduction ([5]; 100 mg/kg i.p. at 0.5, 5, 17, 29 and 41 hours post stroke): approximately 50%
- infarct volume reduction ([5]; 100 mg/kg i.p. at 5, 17, 29, and 41 hours post stroke): approximately 50%
- survival of treated animals vs controls [6]: more likely to survive than controls
- protection of GS against the effects of βAP fragments [7]: asymptotically leveling out at a substantially incomplete level of protection
- Infarct Volume ([8]; 1.0 mg/kg/hr i.v.): 17.7 mm^3
- Infarct Volume ([8]; 10 mg/kg/hr i.v.): 13.8 mm^3
- Infarct Volume ([8]; 100 mg/kg/hr i.v.): Toxic
- mortality [9]: 10 to 20%
- sedation ([10]; 100 mg/kg): slight sedation
- sedation ([10]; 300 mg/kg): marked sedation
- Neuronal nuclei/100 micron field ([11]; 32 mg/kg i.p.): 1.09 Neuronal nuclei/100 micron field
- Neuronal nuclei/100 micron field ([11]; 50 mg/kg i.p.): 1.85 Neuronal nuclei/100 micron field
- Neuronal nuclei/100 micron field ([11]; 100 mg/kg i.p.): 2.11 Neuronal nuclei/100 micron field
- Neuronal nuclei/100 micron field ([11]; 320 mg/kg i.p.): 2.25 Neuronal nuclei/100 micron field
- Neuronal nuclei/100 micron field ([11]; 1000 mg/kg i.p.): Toxic
- death or acute toxicity [12]: death or acute toxicity
- protection for neuronal loss (neuronal density) ([13]; 0.5 mg/kg single dose i.v.): 0.83
- protection for neuronal loss (neuronal density) ([13]; 1.0 mg/kg single dose i.v.): 1.07
- protection for neuronal loss (neuronal density) ([13]; 10 mg/kg single dose i.v.): 1.23
- effect on neuronal density in control gerbils ([13]; control gerbils without brain injury): Neither PBN nor Compound I. had an effect on neuronal density
- Neuronal nuclei/100 micron field ([14]; 3.2 mg/kg i.p.): 0.43 Neuronal nuclei/100 micron field
- Neuronal nuclei/100 micron field ([14]; 10 mg/kg i.p.): 1.13 Neuronal nuclei/100 micron field
- Neuronal nuclei/100 micron field ([14]; 32 mg/kg i.p.): 1.83 Neuronal nuclei/100 micron field
- Neuronal nuclei/100 micron field ([14]; 50 mg/kg i.p.): 3.11 Neuronal nuclei/100 micron field
- Neuronal nuclei/100 micron field ([14]; 100 mg/kg i.p.): 3.68 Neuronal nuclei/100 micron field
- Neuronal nuclei/100 micron field ([14]; 320 mg/kg i.p.): 3.78 Neuronal nuclei/100 micron field
- Neuronal nuclei/100 micron field ([14]; 1000 mg/kg i.p.): Toxic
- Neuronal nuclei/100 micron field ([14]; 3200 mg/kg i.p.): Toxic
- lethality protection (% survived) ([15]; 10 mg/kg): 42%
- lethality protection (% survived) ([15]; 32 mg/kg): 50%
- lethality protection (% survived) ([15]; 100 mg/kg): 75%
- lethality protection (% survived) ([15]; 320 mg/kg): 92%
- lethality protection ([15]; Compound I: at high levels): only partially effective
